The record followed here is US12338243B2, “P2X7 modulators” (JANSSEN PHARMACEUTICA NV, priority 2014, dated 2025).

The structures appear in SMILES notation.

What is called IC50 is the point on the concentration scale where inhibition reaches its midpoint.

For one experiment, the target named is T1, P2X7 (Homo sapiens, UniProt Q99572).
T1 sequence (Q99572 1-595): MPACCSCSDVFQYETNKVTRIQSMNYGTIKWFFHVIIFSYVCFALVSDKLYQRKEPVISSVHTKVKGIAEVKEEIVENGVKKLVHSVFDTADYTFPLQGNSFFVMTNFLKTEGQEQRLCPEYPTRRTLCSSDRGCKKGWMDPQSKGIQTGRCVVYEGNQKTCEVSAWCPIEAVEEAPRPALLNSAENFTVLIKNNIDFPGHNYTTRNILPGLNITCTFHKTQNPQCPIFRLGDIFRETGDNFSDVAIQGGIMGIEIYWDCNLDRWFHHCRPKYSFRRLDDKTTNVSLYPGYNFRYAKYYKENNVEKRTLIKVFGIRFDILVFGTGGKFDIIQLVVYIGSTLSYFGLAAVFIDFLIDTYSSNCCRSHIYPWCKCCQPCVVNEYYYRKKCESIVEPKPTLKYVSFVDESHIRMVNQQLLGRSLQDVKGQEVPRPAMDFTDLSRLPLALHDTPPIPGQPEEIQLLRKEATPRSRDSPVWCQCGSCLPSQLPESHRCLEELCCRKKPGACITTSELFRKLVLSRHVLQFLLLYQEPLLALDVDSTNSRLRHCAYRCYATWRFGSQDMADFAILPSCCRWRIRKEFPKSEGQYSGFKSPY
The experiment can be described thus: Ca2+ flux (FLIPR) in 1321N1 cells expressing recombinant human P2X7 channel. The format is cell-based. On the set-up: expressed in transfected cells; host or cells: 1321N1 cells. Conditions: 250 μM BzATP. As to the method: P2X7 Antagonism in Recombinant Human P2X7 Cells or Recombinant Rat P2X7 Cells: (a) Ca^2+ Flux and (b) Radioligand Binding
(a) Ca^2+ flux: 1321N1 cells expressing the recombinant human or rat P2X7 channel was cultured in HyQ DME/(HyClone/Dulbecco's Modified Eagle Medium) high glucose supplemented with 10% Fetal Bovine Serum (FBS) and appropriate selection marker. Cells were seeded at a density of 25000 cells/well (96-well clear bottom black walled plates) in 100 μl volume/well. On the day of the experiment, cell plates were washed with assay buffer, containing (in mM): 130 NaCl, 2 KCl, 1 CaCl2), 1 MgCl2, 10 HEPES, 5 glucose; pH 7.40 and 300 mOs. After the wash, cells were loaded with the Calcium-4 dye (Molecular Device) and incubated in the dark for 60 minutes. Test compounds were prepared at 250× the test concentration in neat DMSO. Intermediate 96-well compound plates were prepared by transferring 1.2 μL of the compound into 300 μL of assay buffer. A further 3× dilution occurred when transferring 50 μL/well of the compound plate to 100 μL/well in the cell plate. Cells were incubated with test compounds and dye for 30 minutes. […] The fluorescence change was measured 180 seconds after adding the agonist.

The target of the next experiment is T2, rat P2X7 (Rattus norvegicus, UniProt Q64663).
T2 sequence (Q64663 1-595): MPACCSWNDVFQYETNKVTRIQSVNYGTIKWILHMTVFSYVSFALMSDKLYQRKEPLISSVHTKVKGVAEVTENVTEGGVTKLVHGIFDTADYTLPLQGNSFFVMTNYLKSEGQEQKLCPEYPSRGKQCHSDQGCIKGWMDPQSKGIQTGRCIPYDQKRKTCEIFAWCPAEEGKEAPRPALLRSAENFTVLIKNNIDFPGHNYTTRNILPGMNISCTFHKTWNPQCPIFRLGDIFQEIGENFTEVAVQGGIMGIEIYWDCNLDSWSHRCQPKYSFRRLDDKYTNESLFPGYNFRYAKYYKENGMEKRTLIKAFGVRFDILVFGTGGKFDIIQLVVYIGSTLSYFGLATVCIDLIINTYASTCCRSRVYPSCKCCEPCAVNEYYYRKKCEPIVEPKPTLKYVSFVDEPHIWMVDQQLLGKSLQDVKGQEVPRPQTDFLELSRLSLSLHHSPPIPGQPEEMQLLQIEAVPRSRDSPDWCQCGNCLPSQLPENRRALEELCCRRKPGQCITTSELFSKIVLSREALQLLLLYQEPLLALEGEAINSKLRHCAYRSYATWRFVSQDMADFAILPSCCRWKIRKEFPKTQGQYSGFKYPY
The experiment can be described thus: Ca2+ flux (FLIPR) in 1321N1 cells expressing recombinant rat P2X7 channel. Conditions: FLIPR (rat) IC50 (μM), 250 μM BzATP.

`O=C(c1cccc(C(F)(F)F)c1Cl)N1CCn2c(nnc2C(F)(F)F)C1c1ccn[nH]1` (racemic) [Example 126, (±)-(8-(1H-pyrazol-5-yl)-3-(trifluoromethyl)-5,6-dihydro-[1,2,4]triazolo[4,3-a]pyrazin-7(8H)-yl)(2-chloro-3-(trifluoromethyl)phenyl)methanone]: the IC50 at P2X7 is 1.55 µM; at rat P2X7, over 10 µM.

In the case of `CC1Cn2c(nnc2C(F)(F)F)C(c2ccccc2)N1C(=O)c1cccc(C(F)(F)F)c1Cl` (racemic) [Example 130, (±)-(2-chloro-3-(trifluoromethyl)phenyl)(6-methyl-8-phenyl-3-(trifluoromethyl)-5,6-dihydro-[1,2,4]triazolo[4,3-a]pyrazin-7(8H)-yl)methanone], the IC50 on P2X7 and on rat P2X7 was over 10 µM in each case.

For the compound `C[C@H]1Cn2c(nnc2-c2ccc(C(F)(F)F)cc2)CN1C(=O)c1cccc(Cl)c1Cl` [Example 26, (S)-(2,3-dichlorophenyl)(6-methyl-3-(4-(trifluoromethyl)phenyl)-5,6-dihydro-[1,2,4]triazolo[4,3-a]pyrazin-7(8H)-yl)methanone], the IC50 worked out at 4.13 µM on P2X7 and 3.95 µM at rat P2X7.

In the case of `C[C@H]1Cn2c(nnc2-c2ccc(C(F)(F)F)cc2)CN1C(=O)c1cccc(C(F)(F)F)c1Cl` [Example 27, (S)-(2-chloro-3-(trifluoromethyl)phenyl)(6-methyl-3-(4-(trifluoromethyl)phenyl)-5,6-dihydro-[1,2,4]triazolo[4,3-a]pyrazin-7(8H)-yl)methanone], the concentration for half-maximal inhibition (IC50) worked out at 1.66 µM on P2X7 and 2.96 µM on rat P2X7.

In the case of `C[C@H]1Cn2c(nnc2-c2ccc(C(F)(F)F)c(F)c2)CN1C(=O)c1cccc(Cl)c1Cl` [Example 28, (S)-(2,3-dichlorophenyl)(3-(3-fluoro-4-(trifluoromethyl)phenyl)-6-methyl-5,6-dihydro-[1,2,4]triazolo[4,3-a]pyrazin-7(8H)-yl)methanone], the figures for the IC50 at P2X7 and on rat P2X7 were 7.48 µM and 3.78 µM, respectively.

In the case of `C[C@H]1Cn2c(nnc2-c2ccc(C(F)(F)F)c(F)c2)CN1C(=O)c1cccc(C(F)(F)F)c1Cl` [Example 29, (S)-(2-chloro-3-(trifluoromethyl)phenyl)(3-(3-fluoro-4-(trifluoromethyl)phenyl)-6-methyl-5,6-dihydro-[1,2,4]triazolo[4,3-a]pyrazin-7(8H)-yl)methanone], the IC50 on P2X7 was determined as 3.55 µM; on rat P2X7, 2.97 µM.

Regarding `CC1CN(C(=O)c2cccc(Cl)c2Cl)Cc2nnc(-c3ccccn3)n21` (centres unmarked) [Example 34, (2,3-dichlorophenyl)(5-methyl-3-(pyridin-2-yl)-5,6-dihydro-[1,2,4]triazolo[4,3-a]pyrazin-7(8H)-yl)methanone], the IC50 is 12.9 µM on P2X7 and over 10 µM at rat P2X7.

Take `CC1c2nnc(-c3ccc(C(F)(F)F)cc3)n2CCN1C(=O)c1cccc(C(F)(F)F)c1Cl` (centres unmarked) [Example 35, (2-chloro-3-(trifluoromethyl)phenyl)(8-methyl-3-(4-(trifluoromethyl)phenyl)-5,6-dihydro-[1,2,4]triazolo[4,3-a]pyrazin-7(8H)-yl)methanone]: the IC50 on P2X7 and on rat P2X7 was over 10 µM throughout.

In the case of `C[C@H]1Cn2c(nnc2-c2ccccc2F)CN1C(=O)c1cccc(C(F)(F)F)c1Cl` [Example 39, (S)-(2-chloro-3-(trifluoromethyl)phenyl)(3-(2-fluorophenyl)-6-methyl-5,6-dihydro-[1,2,4]triazolo[4,3-a]pyrazin-7(8H)-yl)methanone], the IC50 came out at 2.43 µM at P2X7 and 9.44 µM on rat P2X7.

For the compound `C[C@H]1Cn2c(nnc2-c2ccccc2F)CN1C(=O)c1ccc(F)c(Cl)c1Cl` [Example 40, (S)-(2,3-dichloro-4-fluorophenyl)(3-(2-fluorophenyl)-6-methyl-5,6-dihydro-[1,2,4]triazolo[4,3-a]pyrazin-7(8H)-yl)methanone], the IC50 at P2X7 turned out to be 9.04 µM; on rat P2X7, 14.8 µM.

As to `C[C@H]1Cn2c(nnc2-c2cccc(F)c2)CN1C(=O)c1cccc(Cl)c1Cl` [Example 41, (S)-(2,3-dichlorophenyl)(3-(3-fluorophenyl)-6-methyl-5,6-dihydro-[1,2,4]triazolo[4,3-a]pyrazin-7(8H)-yl)methanone], the IC50 at P2X7 was over 10 µM; at rat P2X7, 10.7 µM.

On to `C[C@H]1Cn2c(nnc2-c2cccc(F)c2F)CN1C(=O)c1cccc(Cl)c1Cl` [Example 44, (S)-(2,3-dichlorophenyl)(3-(2,3-difluorophenyl)-6-methyl-5,6-dihydro-[1,2,4]triazolo[4,3-a]pyrazin-7(8H)-yl)methanone], for which the values for the IC50 at P2X7 and on rat P2X7 were 3.92 µM and 1.46 µM, respectively.

For `C[C@H]1Cn2c(nnc2-c2cccc(F)c2F)CN1C(=O)c1cccc(C(F)(F)F)c1Cl` [Example 45, (S)-(2-chloro-3-(trifluoromethyl)phenyl)(3-(2,3-difluorophenyl)-6-methyl-5,6-dihydro-[1,2,4]triazolo[4,3-a]pyrazin-7(8H)-yl)methanone], the IC50 on P2X7 stood at 1.82 µM; at rat P2X7, 0.408 µM.

For `C[C@H]1Cn2c(nnc2-c2cccc(F)c2F)CN1C(=O)c1ccc(F)c(Cl)c1Cl` [Example 46, (S)-(2,3-dichloro-4-fluorophenyl)(3-(2,3-difluorophenyl)-6-methyl-5,6-dihydro-[1,2,4]triazolo[4,3-a]pyrazin-7(8H)-yl)methanone], the results for the IC50 at P2X7 and on rat P2X7 were 2.54 µM and 2.42 µM, respectively.

For `C[C@H]1Cn2c(nnc2-c2ccc(F)c(F)c2)CN1C(=O)c1cccc(Cl)c1Cl` [Example 47, (S)-(2,3-dichlorophenyl)(3-(3,4-difluorophenyl)-6-methyl-5,6-dihydro-[1,2,4]triazolo[4,3-a]pyrazin-7(8H)-yl)methanone], the IC50 turned out to be 10.4 µM on P2X7 and 1.61 µM on rat P2X7.

Regarding `C[C@H]1Cn2c(nnc2-c2ccc(F)c(F)c2)CN1C(=O)c1cccc(C(F)(F)F)c1Cl` [Example 48, (S)-(2-chloro-3-(trifluoromethyl)phenyl)(3-(3,4-difluorophenyl)-6-methyl-5,6-dihydro-[1,2,4]triazolo[4,3-a]pyrazin-7(8H)-yl)methanone], the IC50 at P2X7 worked out at 1.66 µM; at rat P2X7, 0.637 µM.

For `C[C@H]1Cn2c(nnc2-c2ccc(F)c(F)c2)CN1C(=O)c1ccc(F)c(Cl)c1Cl` [Example 49, (S)-(2,3-dichloro-4-fluorophenyl)(3-(3,4-difluorophenyl)-6-methyl-5,6-dihydro-[1,2,4]triazolo[4,3-a]pyrazin-7(8H)-yl)methanone], the IC50 on P2X7 came out at 4.11 µM; on rat P2X7, 2.73 µM.

For `C[C@H]1Cn2c(nnc2-c2ccc(F)cc2F)CN1C(=O)c1cccc(C(F)(F)F)c1Cl` [Example 51, (S)-(2-chloro-3-(trifluoromethyl)phenyl)(3-(2,4-difluorophenyl)-6-methyl-5,6-dihydro-[1,2,4]triazolo[4,3-a]pyrazin-7(8H)-yl)methanone], the IC50 amounted to 1.93 µM at P2X7 and 0.578 µM on rat P2X7.

Take `C[C@H]1Cn2c(nnc2-c2ccc(F)cc2F)CN1C(=O)c1ccc(F)c(Cl)c1Cl` [Example 52, (S)-(2,3-dichloro-4-fluorophenyl)(3-(2,4-difluorophenyl)-6-methyl-5,6-dihydro-[1,2,4]triazolo[4,3-a]pyrazin-7(8H)-yl)methanone]: the values for the IC50 at P2X7 and at rat P2X7 were 7.05 µM and 2.09 µM, respectively.
